“Also recorded” adds a separate entry of the source.

The values that follow come from patent US20120231015A1, “FRAGILE X MENTAL RETARDATION PROTEIN (FMRP), COMPOSITIONS, AND METHODS RELATED THERETO” (EMORY UNIVERSITY, priority 2009, published 2012).

Test [1] deals with primary hippocampal neurons. The test is described as follows: Constitutive AMPAR internalization assay. The test is classed as cell-based, mouse. The note with it: WT neurons.
The next test relates to cortical SNS. Briefly: Metabolic labeling of cortical SNS with [35S]methionine (synaptic translation rates). The test is classed as cell-based, mouse. The note with it: for translation rates (amino acid incorporation): antagonist 50 μM; for translation rates ([35S] incorporation in 5 min): antagonist 10 μM. Here is the method:
(§1) Cortical SNS were prepared as described previously (Muddashetty et al., 2007) and treated with the indicated antagonists or solvent for 5 min at 37° C., for some experiments followed by DHPG (100 μM) for 15 min at 37° C. as indicated, and with puromycin (2 mM) for 30 min at 37° C. Metabolic labeling was performed with 100 μCi Pro-Mix, L-(35S) in vitro cell labeling mix (GE Healthcare) for 5 min. Triplicate samples from time point 0 and 5 min were washed once in homogenization buffer, followed by lysis (100 mM Tris-HCl, pH 7.4, 150 mM NaCl, 0.5% deoxycholate, and 1% Triton X-100, supplemented with proteinase inhibitors) and TCA precipitation. 35S-incorporation levels were estimated by scintillation counting.

A further test deals with rat hippocampal neurons. The note with it: siRNA-mediated FMRP deficiency; cited from earlier work.
The subject of the next test is PI3K (p110beta). Briefly: In vitro PI3K assay with immunoprecipitated p110beta from treated cortical synaptoneurosomes (SNS). The test is classed as cell-based, mouse. The procedure: In vitro PI3K assays were performed as described previously (Ye et al., (2000) Cell 103:919-930) using p110beta antibody. In vitro extracellular signal-regulated kinase (ERK) activity assays were performed using the p44/42 MAP Kinase Assay kit from Cell Signaling Technology according to the manual. HEK293T cells were cultured in DMEM supplemented with 10% FBS. Fmr1-specific siRNA was transfected using LF2000 (Invitrogen) according to the manual. At 48 h after transfection, cells were scraped from the dish with PBS, divided into two equal parts for PI3K and ERK activity assays, respectively. […] Cortical synaptoneurosomes (SNS) were prepared as described previously (Muddashetty et al., (2007) J Neurosci 27:5338-5348.). SNS were split in two equal parts for PI3K and ERK activity assays. Cells and SNS were lysed in kinase assay buffers (for PI3K assay: 50 mM Tris-HCl, pH 7.4, 40 mM NaCl, 1 mM EDTA, 0.5% Triton X-100, 1.5 mM Na3VO4, 50 mM NaF, 10 mM sodium pyrophosphate, and 10 mM sodium β-glycerol phosphate, supplemented with proteinase inhibitors; for ERK activity assay: lysis buffer provided by Cell Signaling Technology). Lysates were cleared by centrifugation, and protein concentrations were determined by the Bradford method. For both kinase assays, the same amount of protein was used for wild-type (WT) and Fmr1 KO SNS or sifmr1 knockdown (KD) and sictr HEK293T cells, respectively. For measuring PI3K activity following various treatments, SNS were incubated for 10 min at 37° C. with either 100 μM (S)-3,5-dihydroxyphenylglycine (DHPG) or 10 μM 2-methyl-6-(phenylethynyl)-pyridine (MPEP) or for 1 h at 37° C. with tat-mGluR5-CT or tat-mGluR5-MUT peptides (5 μM) before lysis. For PI3K assays with cortical neurons, cells at 11d in vitro (DIV) were transfected with 10 μl of control adenovirus or adenovirus carrying short-hairpin PIKE-L (as described previously by Tang et al., (2008) Nat Cell Biol 10:698-706.) for 48 h. PI3K assays were performed with 300 μg of protein as described above. To confirm PIKE-L knockdown, 80 μg of protein was used for Western blot analyses using anti-PIKE-L antibody.

The next test deals with p110beta. Briefly: p110beta protein levels by Western blot in cortical SNS. The test is classed as cell-based, mouse. Particulars: DHPG 15 min, 50 μM. The procedure: SDS-PAGE and Western blots were performed as described previously (Muddashetty et al., 2007) and quantified using NIH ImageJ. Signal intensities of p110beta- and FMRP-specific bands were normalized to tubulin signal on the same blot. Signal intensities of phospho-proteins were normalized to total levels of the respective protein on the same blot. For this purpose, Western blots were stripped after detection with the phospho-specific antibodies using 100 mM β-mercaptoethanol and 2% SDS in 62.5 mM Tris-HCl, pH 6.8, at 50° C. for 30 min and, after extensive washing, detected with the respective antibody specific for the total protein.
as §1, with “[…],” for “for some experiments followed by DHPG (100 μM) for 15 min at 37° C. as indicated,”

The next test deals with PDK1. The note with it: hippocampal slices from Fmr1 KO mice; cited from earlier work.
Another test concerns p110beta mRNA. Briefly: p110beta mRNA in polysomal fractions of sucrose gradients, cortical SNS. The test is classed as cell-based, mouse. The procedure:
Gradient preparation, centrifugation, fractionation, RNA purification, and qRT-PCRs were performed as described previously (Muddashetty et al., 2007).
as §1, with “[…],” for “for some experiments followed by DHPG (100 μM) for 15 min at 37° C. as indicated,”

Consider `N#CC(=C(N)Sc1ccccc1N)C(C#N)=C(N)Sc1ccccc1N` [U0126, 1,4-diamino-2,3-dicyano-1,4-bis(o-aminophenylmercapto)butadiene], for which the “constitutive endocytosis of AMPARs in distal dendrites (median)” value in test [1] (U0126 20 μM for 1 h) turned out to be 43.8. Moreover, the “DHPG-induced translational activation after antagonist pretreatment” value with cortical SNS (Fmr1 KO SNS, DHPG 100 μM, 15 min) is reported as “did not rescue DHPG-stimulated translation; also recorded: but not by ERK1/2 inhibition”; in the test on cortical SNS (WT SNS, DHPG 15 min, 100 μM), “abolished DHPG-induced translational increase; also recorded: abolish”. Besides, in the test with cortical SNS (WT and Fmr1 KO SNS, U0126 20 μM), the “translation rates, genotype dependence of effect” value was “reduced protein synthesis levels independently of genotype to the same extent; also recorded: did not show a genotype-specific effect on translation rates”.
In the case of `N[C@@H](CCCP(=O)(O)O)C(=O)O` [APV], in the test with cortical SNS (Fmr1 KO SNS), the “translation rates (amino acid incorporation)” value is given as “failed to reduce augmented translation in KO”. Besides, in the test on cortical SNS (WT and Fmr1 KO SNS, APV 50 μM), the “translation, genotype dependence of effect” value is on record as “affected translation similarly across genotypes”.
For `O=c1cc(N2CCNCC2)oc2c(-c3ccccc3)cccc12` [LY303511, 2-(1-piperazinyl)-8-phenyl-4H-1-benzopyran-4-one], the translation rates entry in the test with cortical SNS (SNS, inactive analog of LY294002) is “did not show any effect; also recorded: did not alter translation rates”.
For the compound `Cc1cccc(C#Cc2ccccc2)n1` [MPEP, 2-methyl-6-(phenylethynyl)-pyridine], the “levels of internalized AMPARs” value in the test with rat hippocampal neurons is “rescued increased levels of internalized AMPARs”. Also, the PI3K activity result with PI3K (p110beta) (Fmr1 KO SNS, MPEP 10 μM, 10 min at 37° C.) is listed as “significantly reduced PI3K function; also recorded: significantly reduces PI3K activity”; in the test with PI3K (p110beta) (WT SNS, MPEP 10 μM, 10 min at 37° C.), “no significant effect”. In addition, the “translation rates ([35S] incorporation in 5 min)” value in the test with cortical SNS (Fmr1 KO SNS) is recorded as “reduced synaptic Fmr1 KO translation; also recorded: significantly decreased translation rates”.
In the case of `N[C@H](C(=O)O)c1cc(O)cc(O)c1` [DHPG, (S)-3,5-dihydroxyphenylglycine], in the test on p110beta (Fmr1 KO SNS), the p110beta protein expression result is listed as “occluded; also recorded: does not increase protein expression”. The p110beta protein levels entry in the test on p110beta (WT SNS) is recorded as “led to increased p110beta protein levels; also recorded: increases p110beta protein levels”. Also, in the test on PDK1, the “phosphorylation of PDK1” value is on record as “does not induce the phosphorylation of PDK1”. Also, the PI3K activity result in the test on PI3K (p110beta) (Fmr1 KO SNS, DHPG 100 μM, 10 min) was “failed to activate PI3K; also recorded: significant reduction of PI3K activity; also recorded: decreased PI3K activity”; in the test with PI3K (p110beta) (WT SNS, DHPG 100 μM, 10 min), “twofold increase”. In the test with cortical SNS (Fmr1 KO SNS, no antagonist), the DHPG-induced translational activation result is reported as “occluded”. The “p110beta mRNA in puromycin-sensitive polysomal fractions (translation)” value in the test with p110beta mRNA (Fmr1 KO SNS, DHPG 15 min, 50 μM) was “occluded”. The “p110beta mRNA in puromycin-sensitive polysomal fractions” value in the test with p110beta mRNA (WT SNS, DHPG 15 min, 50 μM) is reported as “induced a significant shift of p110beta mRNA into puromycin-sensitive fractions; also recorded: leads to a shift of p110beta mRNA into puromycin-sensitive fractions”.
For `O=c1cc(N2CCOCC2)oc2c(-c3ccccc3)cccc12` [LY294002, 2-(4-morpholinyl)-8-phenyl-1(4H)-benzopyran-4-one], in test [1] (LY294002 50 μM for 1 h), the “constitutive endocytosis of AMPARs in distal dendrites (median)” value came out at 35.3. For the same compound, the “translation rates (amino acid incorporation)” value with cortical SNS (Fmr1 KO SNS) is on record as “could specifically rescue the excessive synaptic translation; also recorded: significantly reduced amino acid incorporation rates”.
For `Cc1cc(C(=O)O)ccc1[C@H](N)C(=O)O` [LY367385], in the test on cortical SNS (Fmr1 KO SNS), the “translation rates ([35S] incorporation in 5 min)” value was “reduced synaptic Fmr1 KO translation; also recorded: significantly decreased translation rates”.
Turning to `COc1ccc(C[C@H](N)C(=O)N[C@H]2[C@@H](O)[C@H](n3cnc4c(N(C)C)ncnc43)O[C@@H]2CO)cc1` [puromycin], the “association of p110beta mRNA with synaptoneurosomal polysomes” value in the test on p110beta mRNA (SNS, puromycin 2 mM, 30 min at 37° C.) is “sensitive to puromycin treatment”.
